In patent publication US20220054559A1, “COMPOSITIONS AND METHODS FOR ENHANCING EXERCISE ENDURANCE” (PRESIDENT AND FELLOWS OF HARVARD COLLEGE, priority 2019, published 2022):
“Also recorded” adds a separate entry of the source.

Legend:
Type in all cases: in vivo, mouse
[1] = 13C3-lactate flux tracing after tail-vein injection (LC-MS)
Protocol: It was next determined whether systemic lactate is capable of crossing the epithelial barrier into the gut lumen. […] At sacrifice, serum and plasma were immediately collected following cardiac puncture, and intestinal luminal contents were collected by removing the colon and cecum from the mice and gently sampling the inner surface of the tissue.
20% w/w ^13C3 sodium lactate (Cambridge Isotope Laboratories™) was diluted with PBS to a concentration of 400 mM in PBS. […] […] […] Whole blood was divided into two samples to obtain both serum and plasma, which was flash frozen in liquid nitrogen and stored at −80° C.
Immediately following cardiac puncture, mice were dissected to remove colon and cecum, and the contents were removed by squeezing with sterilized forceps into pre-weighed tubes. Contents were immediately flash frozen in liquid nitrogen. […]
Samples were analyzed for lactate and propionate by a Metabolomics Platform. LC-MS metabolomics were performed as previously described. 23 LC-MS traces were identified and integrated to quantify presence of ^13C0- and ^13C3-lactate isotopes.

[2] = system: mice; assay: Colorectal propionate instillation, treadmill run to exhaustion; details: 200 μL 150 mM sodium propionate in PBS into the colon 30 minutes prior to exercise, n=8, P=0.03
Protocol: (§1) Treadmilling followed the same protocol as above. Mice were fasted 7 hours prior to exercise, to normalize metabolic profiles. 30 minutes prior to exercise, mice were treated with 200 μL of either PBS vehicle alone (n=8) or 150 mM sodium propionate in PBS (n=8) using a flexible gavage needle to introduce 200 μL of solution into the colon. Mice were run to exhaustion as above. This protocol was repeated for 3 consecutive days. On the first day of treatment, serum was collected 40 minutes post-exhaustion via tail-vein bleed and measured using the Ciraplex™ multiplex mouse cytokine assay (Aushon BioSystems™)

[3] = system: inflammatory cytokines; assay: Serum inflammatory cytokines after treadmill run, intrarectal propionate; details: serum taken 40 minutes after treadmill running, intrarectal propionate versus vehicle
Protocol: as §1

[4] = 100 μL of 400 mM intravenously via tail vein, sacrifice 12 minutes after injection, LC-MS

| earliest time at which serum lactate levels returned to baseline after tail-vein injection ([1]; tail-vein injection) [min] | Compound | 13C3-labelled lactate detected in tissues [1, 4] | 13C3-labelled propionate detected in tissues [1, 4] | treadmill runtime versus pH-matched placebo vehicle [2] | serum inflammatory cytokine levels [3] |
| --- | --- | --- | --- | --- | --- |
| 12 | [13CH3][13CH](O)[13C](=O)[O-].[Na+] (centres unmarked) [^13C3 sodium lactate] | present in both the serum and plasma as well as in the lumen of the colons and ceca | No ^13C3-labelled propionate was detected in these tissues |  |  |
|  | CCC(=O)[O-].[Na+] [propionate, sodium propionate] |  |  | increased treadmill runtime; also recorded: improves maximum run time | no significant differences in cytokine levels were found |
